Results: patent US5750362A, “Methods for identifying substances with a potential herbicidal or growth-regulating action by means of plant transporter proteins, the use of the transporter proteins, and substances with a herbicidal and growth-regulating action” (BASF Aktiengesellschaft, priority 1993, dated 1998)

Legend:
[1] = target: T1, sucrose transporter S21 (SoSUT1) (Spinacia oleracea, UniProt Q03411); assay: [14C]-sucrose uptake by yeast strain SUSY7 expressing the spinach sucrose transporter; assay type: cell-based; conditions: [14C]-sucrose uptake, pH 3.8; tested substance 0.1 mM
T1 construct: expressed in transfected cells; host or cells: Saccharomyces cerevisiae SUSY7
T1 sequence (Q03411 1-525): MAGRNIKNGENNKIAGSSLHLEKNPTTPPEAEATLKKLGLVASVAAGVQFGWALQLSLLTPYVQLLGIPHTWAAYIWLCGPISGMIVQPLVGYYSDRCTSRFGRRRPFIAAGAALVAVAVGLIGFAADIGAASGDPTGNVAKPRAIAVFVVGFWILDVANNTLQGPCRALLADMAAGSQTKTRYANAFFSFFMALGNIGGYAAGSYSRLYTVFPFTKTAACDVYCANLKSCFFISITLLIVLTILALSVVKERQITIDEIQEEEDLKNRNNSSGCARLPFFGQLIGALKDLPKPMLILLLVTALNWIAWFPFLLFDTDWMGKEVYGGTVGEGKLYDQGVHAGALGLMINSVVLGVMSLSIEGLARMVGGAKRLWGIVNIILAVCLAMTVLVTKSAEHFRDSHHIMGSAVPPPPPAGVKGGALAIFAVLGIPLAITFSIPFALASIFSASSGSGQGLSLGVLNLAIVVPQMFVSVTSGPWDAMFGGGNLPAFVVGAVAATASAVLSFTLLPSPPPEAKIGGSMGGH
Protocol: Yeast cells of the strain SUSY7 (Riesmeier et al., 1992, EMBO J. 11: 4705-4713) are used to identify substances which have an inhibitory effect on sucrose transporters from spinach. Cells of this strain are transformed with a cDNA sequence which codes for the sucrose transporter S21 (SoSUT1) from spinach and which ensures expression of a functional transporter in the cells. The yeast cells are cultured in minimal medium (SD+2% (w/v) sucrose, pH 3.8) at 28° C. and harvested in the logarithmic phase (OD600 =0.6). The cells are spun down at 4000 rpm for 10 minutes and washed twice with SD medium. A cell concentration of c=50 g/l in SD medium is adjusted according to the wet weight of the cells, and 200 μl aliquot fractions are taken. Before the actual reaction, the cells are incubated in 10 mM glucose for 5 min and adjusted to pH 3.8 with MES buffer. The reaction is started by adding 200 μl of a 0.2 mmol/l [14C]-sucrose solution (3 mCi/mmol) in SD medium (pH 3.8). After 20, 60, 120, 180 and 240 seconds, 70 μl portions of the suspension are removed and pipetted into 4 ml of ice-cold water in order to stop the reaction. The cells are filtered off on glass fiber filters and washed twice with ice-cold water. The radioactivity on the filters is subsequently determined in a liquid scintillation counter. The substances to be tested are added 30 seconds before addition of the sucrose. The uptake of radiolabeled sucrose without addition of a potential inhibitor is determined as one control. Cells of the strain SUSY7 which are not transformed with cDNA sequences coding for a sucrose transporter from spinach are employed as further control.
The various tested substances, their concentration and the activity of the transporter, shown as percentage activity of the control in which no potential inhibitors were added, are indicated. Substances which specifically show an inhibitory effect on the sucrose transporter S21 (SoSUT1), are tested for their herbicidal and growth-regulating effect on whole plants.

[2] = target: T2, sucrose transporter P62 (StSUT1) (Solanum tuberosum, UniProt Q43653); assay: [14C]-sucrose uptake by yeast strain SUSY-7-P62 (StSUT1) expressing the potato sucrose transporter; assay type: cell-based; conditions: [14C]-sucrose uptake, pH 3.8; tested substance 0.1 mM
T2 construct: whole-cell [14C]-sucrose uptake; no tag or borders given
T2 sequence (Q43653 1-516): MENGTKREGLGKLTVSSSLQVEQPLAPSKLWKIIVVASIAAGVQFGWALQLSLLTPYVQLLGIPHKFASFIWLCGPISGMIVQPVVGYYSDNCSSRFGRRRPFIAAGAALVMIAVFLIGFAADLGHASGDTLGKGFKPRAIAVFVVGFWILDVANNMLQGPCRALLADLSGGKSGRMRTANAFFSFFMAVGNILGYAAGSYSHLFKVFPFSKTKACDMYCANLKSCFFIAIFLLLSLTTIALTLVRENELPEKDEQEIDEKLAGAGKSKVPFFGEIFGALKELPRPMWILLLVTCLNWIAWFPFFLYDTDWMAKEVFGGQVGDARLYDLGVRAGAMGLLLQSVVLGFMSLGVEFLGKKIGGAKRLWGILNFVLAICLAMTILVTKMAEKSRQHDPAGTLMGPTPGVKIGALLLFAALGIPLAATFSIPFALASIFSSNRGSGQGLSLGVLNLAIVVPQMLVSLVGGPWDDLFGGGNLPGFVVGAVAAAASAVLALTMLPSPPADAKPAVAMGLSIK
From the text: Yeast cells of the strain SUSY7 (Riesmeier et al., 1992, EMBO J. 11: 4705-4713) are used to identify substances which have an inhibitory effect on sucrose transporters from potato. Cells of this strain are transformed with a cDNA sequence which codes for the sucrose transporter P62 (StSUT1) from potato (WO 94/00574, Riesmeier et al., 1993, Plant Cell 5:1591-1598) and which ensures expression of a functional transporter in the cells. The resulting yeast strain was called SUSY-7-P62 (StSUT1). The yeast cells are cultured in minimal medium (SD +2% (w/v) sucrose, pH 3.8) at 28° C. and harvested in the logarithmic phase (OD600 =0.6). The cells are spun down at 4000 rpm for 10 minutes and washed twice with SD medium. A cell concentration of c=50 g/l in SD medium is adjusted according to the wet weight of the cells, and 200 Al aliquot fractions are taken. Before the actual reaction, the cells are incubated in 10 mM glucose for 5 min and adjusted to pH 3.8 with MES buffer. The reaction is started by adding 200 Al of a 0.2 mmol/l [14C]-sucrose solution (3 mCi/mmol) in SD medium (pH 3.8). After 20, 60, 120, 180 and 240 seconds, 70 μl portions of the suspension are removed and pipetted into 4 ml of ice-cold water in order to stop the reaction. The cells are filtered off on glass fiber filters and washed twice with ice-cold water. The radioactivity on the filters is subsequently determined in a liquid scintillation counter. The substances to be tested are added 30 seconds before addition of the sucrose. The uptake of radiolabeled sucrose without addition of a potential inhibitor is determined as one control. Cells of the strain SUSY7 which are not transformed with cDNA sequences coding for a sucrose transporter from potato are employed as further control.
The various tested substances, their concentration and the activity of the transporter, shown as percentage activity of the control in which no potential inhibitors were added, are indicated.

[3] = tested on: plants; assay: Herbicidal activity on plants; assay type: in vivo; conditions: whole plants; result in words
[4] = tested on: sucrose transporters; conditions: Bush, 1989, Plant Physiol. 89: 1318-1323; result in words; cited from earlier work
[5] = target: T3, ammonium transporter AMT1 (Arabidopsis thaliana, UniProt P54144); assay: Substrate specificity, Km and Ki determination of the ammonium transporter in yeast strain 26972c; assay type: cell-based; conditions: inhibition of methylamine transport by various concentrations of ammonium; read-out: Ki (inhibitor constant)
T3 construct: expressed in transfected cells; host or cells: Saccharomyces cerevisiae 26972c (mutations in MEP1 and MEP2)
T3 sequence (P54144 1-501): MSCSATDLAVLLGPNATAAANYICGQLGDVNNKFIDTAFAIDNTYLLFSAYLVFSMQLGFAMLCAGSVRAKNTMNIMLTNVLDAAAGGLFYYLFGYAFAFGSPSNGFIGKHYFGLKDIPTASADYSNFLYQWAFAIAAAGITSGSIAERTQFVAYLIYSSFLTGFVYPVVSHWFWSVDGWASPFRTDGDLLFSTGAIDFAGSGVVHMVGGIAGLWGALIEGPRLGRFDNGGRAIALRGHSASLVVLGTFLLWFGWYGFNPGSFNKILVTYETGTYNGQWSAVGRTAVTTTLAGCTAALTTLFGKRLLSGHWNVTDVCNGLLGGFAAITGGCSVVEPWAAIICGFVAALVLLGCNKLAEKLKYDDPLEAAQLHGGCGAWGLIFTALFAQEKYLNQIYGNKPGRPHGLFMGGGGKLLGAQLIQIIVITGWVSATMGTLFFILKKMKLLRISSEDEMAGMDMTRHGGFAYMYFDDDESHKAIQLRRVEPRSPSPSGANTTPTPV
Protocol: The investigations of the substrate specificity and the Km determinations are carried out with the yeast strain .music-natural. 26972c (Dubois & Grenson, Mol. Gen. Genet. 175: 67-76, 1979) which expresses the plant ammonium transporter AMT1. The method for this is as in Example 6, except for the fact that the methylamine substrate concentration is varied. […] To determine the affinity of the transport system for ammonium, the inhibition of methylamine transport by various concentration [sic] of ammonium is determined (inhibitor constant, Ki)

[6] = substrate: OC[C@H]1O[C@@](CO)(O[C@H]2O[C@H](CO)[C@@H](O)[C@H](O)[C@H]2O)[C@@H](O)[C@@H]1O; assay: Substrate specificity and Km determination of the sucrose transporter in yeast strain SUSY7-pP62; assay type: cell-based, Solanum tuberosum; conditions: other: substrate of the sucrose transporter; substrate concentration varied, no inhibitors
Protocol: (§1) The investigations of the substrate specificity and the Km determination are carried out in the yeast strain SUSY7-pP62 (StSUT1) (Riesmeier et al., 1993, Plant Cell 5:1591-1598), which expresses the sucrose transporter from Solanum tuberosum. This entails carrying out the method of Example 3 apart from the fact that the substrate concentration is changed and no potential inhibitors are added. […]

[7] = substrate: OC[C@H]1O[C@H](O[C@H]2[C@H](O)[C@@H](O)[C@H](O)O[C@@H]2CO)[C@H](O)[C@@H](O)[C@@H]1O; assay: as above; assay type: cell-based, Solanum tuberosum; conditions: other: substrate of the sucrose transporter; substrate concentration varied, no inhibitors
Protocol: as §1

For O=S(=O)(O)c1cc[c]([Hg][Cl])cc1 [PCMBS], the “Activity relative to the control [%]” value [1] was 21%, the “Activity relative to the control [%]” value [2] was 20% and the “Herbicidal activity on plants” value [3] was “herbicidal activity on plants”. For the same molecule, the “Inhibition of sucrose transport” value [4] was “highly effective transport inhibitors”.

N [ammonium] gave a Ki [5] of less than 10 µM.

B1: sucrose transporter P62 (StSUT1) (Solanum tuberosum) (protein)
chain: T2 sequence (Q43653 1-516)
notes: whole-cell [14C]-sucrose uptake; no tag or borders given
With B1 the Km [6] was 1 mM and the Km [7] was 10 mM.
